The source of these data is publication PMC9283466, “In silico identification of two peptides with antibacterial activity against multidrug-resistant Staphylococcus aureus” (NPJ Biofilms and Microbiomes, 2022).

Values after ≈ are worked out from the molar mass of the structure shown. Where two headings read alike, the source gives them in different places. Peptide text beside a SMILES is read from it. Where only a bound is given, the exact number is not on record here.

The test system of one assay is S. aureus RN4220. Put plainly: MIC, broth microdilution. The assay is classed as cell-based, Staphylococcus aureus. As to conditions: Staphylococcus aureus, sensitive, read-out: MIC. As to the method:
(§1) To determine the antimicrobial activity of the new antimicrobial peptides, HG2 and HG4, their minimum inhibitory concentrations (MICs) were determined by broth microdilution method[51] in cation adjusted Mueller Hinton broth (MHB) following the International Organisation for Standardisation (ISO) 20776-1 standard for MIC testing using a final bacterial inoculum of 5 × 10^5 CFU/ml[52]. […] The peptides dissolved in sterile distilled water were added to bacteria culture and incubated overnight at appropriate conditions. The MICs of the peptides and comparator antibiotics were recorded after 18–24 h. The minimum bactericidal concentrations (MBCs) were also determined and were taken as the lowest concentration of the antimicrobial that prevented the growth of bacterial cells after the subculture of cells (from MIC treatment) onto antibiotic-free media.
In general terms: In broth dilution the organism is exposed to a series of concentrations in liquid medium.

The test system of another assay is Ent. faecalis JH2-2. Put plainly: microbe, parasite or virus in culture. To be noted: Enterococcus faecalis, JH22. The assay is classed as cell-based, Enterococcus faecalis. As to the method: as §1
Assay [1] has as its system MRSA USA300 cells. The assay is described as follows: Time-kill kinetics. The assay is classed as cell-based, Staphylococcus aureus. As to conditions: 3x MIC, comparator antibiotics, time not stated. As to the method:
The bactericidal activity of HG2, HG4 and comparator antimicrobial compounds was assessed using exponential-phase cultures[14] of MRSA USA300 grown in MHB (1 × 10^6-8 CFU/ml). […] Samples were taken at different time points, serially diluted and inoculated onto MH agar plates using the spread plate technique. After overnight incubation, the colony-forming units per millilitre of cell culture (CFU/ml) was calculated. Experiments were performed in quadruplicates.

For assay [2], the system named is L. monocytogenes NCTC 11994. Put plainly: microbe, parasite or virus in culture. As to conditions: Listeria monocytogenes, NCTC11994. The assay is classed as cell-based, Listeria monocytogenes. As to the method:
as §1

For the next assay, the system named is S. aureus ATCC 33591. Put plainly: microbe, parasite or virus in culture. The assay is classed as cell-based, Staphylococcus aureus. To be noted: Staphylococcus aureus. As to the method: as §1
Another assay deals with S. aureus EMRSA-15. The assay is described as follows: microbe, parasite or virus in culture. As to conditions: Staphylococcus aureus. The assay is classed as cell-based, Staphylococcus aureus. As to the method: as §1
Assay [3] relates to S. aureus USA300 BAA-1717. The assay is described as follows: microbe, parasite or virus in culture. The assay is classed as cell-based, Staphylococcus aureus. As to conditions: Staphylococcus aureus, BAA-1717 / MRSA / USA300. The procedure:
as §1

For another assay, the system named is P. aeruginosa PA01. The assay is described as follows: microbe, parasite or virus in culture. The assay is classed as cell-based, Pseudomonas aeruginosa. As to conditions: Pseudomonas aeruginosa, PA01. The procedure: as §1
For a further assay, the system named is E. coli K12. Put plainly: microbe, parasite or virus in culture. The assay is classed as cell-based, Escherichia coli. To be noted: Escherichia coli, K12. As to the method: as §1
Another assay concerns Sal. typhimurium SL1344. Put plainly: microbe, parasite or virus in culture. The assay is classed as cell-based, Salmonella enterica serovar Typhimurium. As to conditions: Salmonella enterica, TYPHIMURIUM
As to the method: as §1

The next assay concerns Ent. faecalis. Put plainly: microbe, parasite or virus in culture. The assay is classed as cell-based, Enterococcus faecalis. As to the method:
as §1

In a further assay the test system is List. monocytogenes. The assay is described as follows: microbe, parasite or virus in culture. The assay is classed as cell-based, Listeria monocytogenes. As to the method:
as §1

In a further assay the test system is S. aureus. The assay is described as follows: microbe, parasite or virus in culture. The assay is classed as cell-based, Staphylococcus aureus. The procedure: as §1
The test system of another assay is EMRA-15. Put plainly: microbe, parasite or virus in culture. The assay is classed as cell-based, Staphylococcus aureus. As to the method: as §1
The subject of another assay is P. aeruginosa. Put plainly: microbe, parasite or virus in culture. The assay is classed as cell-based, Pseudomonas aeruginosa. The procedure:
as §1

For a further assay, the system named is E. coli. The assay is described as follows: microbe, parasite or virus in culture. The assay is classed as cell-based, Escherichia coli. The procedure: as §1
For the next assay, the system named is Sal. typhimurium. Put plainly: microbe, parasite or virus in culture. The assay is classed as cell-based, Salmonella enterica serovar Typhimurium. As to the method:
as §1

Assay [4] has as its system LPS-driven NF-kB activation, eLUCidate Raw 264.7 NF-kB reporter cell line. The assay is described as follows: Anti-inflammatory activity, NF-kB luciferase reporter. The assay is classed as cell-based, murine. As to conditions: Mus musculus, RAW264.7; 10 ng/ml LPS from E. coli, 6 h; read-out: IC50, LPS-mediated inflammation. As to the method: (§2) The inhibitory activity of HG2, HG4 and comparator compounds against LPS and LTA was assessed using eLUCidate™ Raw 264.7 NF-kB reporter cell line (AMSBIO) as previously described. The eLUCidate NF-kB reporter cell line is a stably transfected Raw 264.7 cell line which expresses the Renilla luciferase reporter gene under the transcriptional control of the NF-kB response element, a key transcription factor involved in immune and inflammatory responses. This reporter cell line has been used to measure the induction of various toll-like receptors (TLR) by ligands, including LPS and LTA, therefore providing an effective way to evaluate inhibitors of their activations. Briefly, cells were grown and maintained following the manufacturer’s instructions in Dulbecco’s modified essential medium (DMEM) supplemented with 10% fetal calf serum (FCS), 1% L-glutamine, 1% antibiotics (Invitrogen) and containing 3 µg/ml of puromycin (Sigma-Aldrich, UK). To test the inhibitory activity of HG2 and HG4 on LPS or LTA-driven NF-kB activation, eLUCidate™ Raw 264.7 cells grown on 75 cm^2 flasks were detached using trypsin-EDTA solution (Thermofisher, UK) and seeded into 96-well cell culture plates (Greiner Bio-one, UK) at ~25,000 cells per well (counted using Mallasez’s chamber). The next day, wells were emptied, and cells were exposed to optimal concentrations of LPS or LTA determined from preliminary experiments, (i.e. 10 ng/ml of LPS from E. coli or 10 µg/ml of LTA from S. aureus (Invivogen, UK)) in the presence of increasing concentrations of HG2 or HG4 (from 0 to 500 µg/ml, serial 1:2 dilutions). Pyrrolidine dithiocarbamate (PDTC, 100 µM) and polymyxin B (PMB, 100 µM) (Sigma-Aldrich, UK) were used as positive controls based on their well-known activity as anti-inflammatory molecules and blockers/neutralisers of LPS and LTA, respectively. Importantly, all steps were performed using non-pyrogenic plastics and RNase/DNase molecular biology tips to limit the risk of the presence of a trace of LPS/LTA. After 6 h incubation at 37 °C and 5% CO2, wells were emptied, and the cells were treated with 70 µl of ice-cold PBS containing 1% Triton X-100. After 10 min incubation on ice under orbital shaking at 200 rpm, 50 µL of cell lysates were collected and transferred into white 96-well luminescence plates (Dominique Dutscher) already containing 100 µL of Renilla luciferase substrate (Yelen, France). Luminescence signals of the wells were immediately measured using a microplate reader (Biotek Synergy Mx, UK). The luminescence values were expressed as a percentage of control inflammation corresponding to values obtained after treatment with LPS or LTA in the absence of an inhibitor. The IC50 values of PDTC, PMB, HG2 or HG4 on LPS or LTA-mediated inflammation (i.e. the concentration of molecule causing a reduction of 50% of the luciferase’s induction caused by LPS or LTA) were calculated using GraphPad® Prism 7 software.
(In general: Reporter assays use an easily measured gene product as a stand-in for the process of interest.)

Assay [5] has as its system LTA-driven NF-kB activation, eLUCidate Raw 264.7 NF-kB reporter cell line. The description is as above. The assay is classed as cell-based, murine. As to conditions: Mus musculus, RAW264.7; 10 µg/ml LTA from S. aureus, 6 h; read-out: IC50, LTA-mediated inflammation. The procedure: as §2
Assay [6] relates to MRSA USA300 cells. The assay is described as follows: Serial passage / resistance assay. The assay is classed as cell-based, Staphylococcus aureus. As to conditions: sub-MIC exposure over 20 days, MRSA USA300. As to the method:
In vitro evaluation of the potential for MRSA USA3000 cells to develop resistance to HG2 and HG4 was performed as follows. […] Cultures from the highest concentration that supported growth were diluted 1: 1000 in MHB and used to provide the inoculum for the next passage day. This process was performed for a total duration of 20 days. Any putative mutants recovered were isolated via streak dilution for three generations on MHA, prior to further characterisation.

Setting [7] is: S. aureus USA300 BAA-1717, MRSA, read-out: MIC.

Turning to `CN[C@H](CC(C)C)C(=O)N[C@H]1C(=O)N[C@@H](CC(N)=O)C(=O)N[C@H]2C(=O)N[C@H]3C(=O)N[C@H](C(=O)N[C@H](C(=O)O)c4cc(O)cc(O)c4-c4cc3ccc4O)[C@H](O)c3ccc(c(Cl)c3)Oc3cc2cc(c3O[C@@H]2O[C@H](CO)[C@@H](O)[C@H](O)[C@H]2O[C@H]2C[C@](C)(N)[C@H](O)[C@H](C)O2)Oc2ccc(cc2Cl)[C@H]1O` [Vancomycin], the MIC with S. aureus RN4220 was 1 µg/mL (≈ 0.69 µM); with Ent. faecalis JH2-2 it was 64 µg/mL (≈ 44.2 µM); in [2], 64 µg/mL (≈ 44.2 µM); in the assay with S. aureus ATCC 33591 (ATCC 33591 / MRSA), 2 µg/mL (≈ 1.38 µM); in the assay with S. aureus EMRSA-15 (MRSA) it was 2 µg/mL (≈ 1.38 µM); in assay [3], 2 µg/mL (≈ 1.38 µM). Moreover, the MIC in the assay with P. aeruginosa PA01 turned out to be 64 µg/mL (≈ 44.2 µM); with E. coli K12, 128 µg/mL (≈ 88.3 µM); in the assay on Sal. typhimurium SL1344 it was 256 µg/mL (≈ 177 µM). For the same compound, the “reduction in viable cells (time-kill)” value with MRSA USA300 cells [1] was no less than 2 log10 CFU/ml.
On to `CC[C@H](C)[C@H](NC(=O)[C@H](CC(C)C)NC(=O)[C@H](CC(C)C)NC(=O)[C@H](CC(C)C)NC(=O)[C@H](CCCCN)NC(=O)[C@H](CCCCN)NC(=O)[C@@H](N)CCSC)C(=O)N[C@@H](CC(C)C)C(=O)N[C@@H](Cc1ccccc1)C(=O)N[C@@H](CS)C(=O)N[C@@H](CC(C)C)C(=O)N[C@@H](C)C(=O)N[C@@H](CC(C)C)C(=O)N[C@@H](C)C(=O)N[C@@H](CC(C)C)C(=O)N[C@@H](C)C(=O)NCC(=O)N[C@@H](CS)C(=O)N[C@@H](CCCCN)C(=O)N[C@@H](CCCCN)C(=O)N[C@@H](C)C(=O)N1CCC[C@H]1C(N)=O` [Linear HG2] (H-MKKLLLILFCLALALAGCKKAP-NH2; N-terminus and C-terminus assumed), for which the “Minimum inhibitory Concentrations MICs” value in the assay with Ent. faecalis, in the assay with List. monocytogenes, with S. aureus, in the assay on EMRA-15, in the assay with P. aeruginosa and in the assay with E. coli was greater than 1024 µg/mL in each case. The “Minimum inhibitory Concentrations MICs” value in the assay on Sal. typhimurium was greater than 1024 µg/mL.
Broadly, the IC50 is the concentration needed to halve the response being measured. For `S=C(S)N1CCCC1` [PDTC, Pyrrolidine dithiocarbamate, reference compound], the IC50 turned out to be 10.7 ± 1.2 µg/mL in assay [4] and 10.8 ± 1.29 µg/mL in [5].
Regarding `C/C(=C\C(=O)OCCCCCCCCC(=O)O)C[C@@H]1OC[C@H](C[C@@H]2O[C@H]2[C@@H](C)[C@H](C)O)[C@@H](O)[C@H]1O` [Mupirocin, reference compound], in the assay with MRSA USA300 cells [6], the “fold increase in MIC during serial passage” value came to 32 fold. Further, the “reduction in viable cells (time-kill)” value with MRSA USA300 cells [1] is no less than 2 log10 CFU/ml. The MIC in [3] (setting [7]) was found to be 0.12 µg/mL (≈ 0.24 µM).
On to `C[C@H]1COc2c(N3CCN(C)CC3)c(F)cc3c(=O)c(C(=O)O)cn1c23` [Levof, levofloxacin], for which the MIC worked out at 0.015 µg/mL (≈ 0.0415 µM) in the assay on S. aureus ATCC 33591 (S. aureus ATCC 33591, MRSA, read-out: MIC); 1 µg/mL (≈ 2.77 µM) with S. aureus EMRSA-15 (S. aureus EMRSA-15, resistances MRSA, Cip, read-out: MIC); 0.0075 µg/mL (≈ 0.0208 µM) in assay [3] (setting [7]).
